Test results published in the NIST ThermoML archive (doi:10.1016/j.jct.2008.07.017).
Numbers after ± are expanded uncertainties.

Key:
[1] = Solid-liquid equilibrium temperature
[2] = Crystal 2; DTA

CCCCCCCCCCCCCCCCCCCC [eicosane]
[1], Crystal, DTA
Settings	Solid-liquid equilibrium temperature [K]
33520 kPa	318.15 ± 0.33
55080 kPa	323.15 ± 0.35
76800 kPa	328.15 ± 0.37
99090 kPa	333.15 ± 0.38
150000 kPa	344.91 ± 0.41

CCCCCCCCCCCCCCCCCCCCCCCCCCCCCCCCCCCCCCCC [tetracontane]
Settings	Triple point temperature [K]
[2]	376.03 ± 0.41

Solid-liquid equilibrium temperature [K], [1]
Settings	10000 kPa	35758 kPa	48436 kPa	50000 kPa	68114 kPa	73917 kPa	90000 kPa	112740 kPa	130000 kPa
Crystal 1	357.34 ± 0.55	363.15 ± 0.67	–	367.26 ± 0.71	371.15 ± 0.75	–	376.58 ± 0.8	381.15 ± 0.84	385.22 ± 0.87
Crystal 2	351.37 ± 0.54	–	363.15 ± 0.7	364.54 ± 0.7	–	371.15 ± 0.76	–	–	–

CCCCCCCCCCCCCCCCCCCCCCCC [tetracosane]
Settings	Triple point temperature [K]
[2]	339.59 ± 0.41

Solid-liquid equilibrium temperature [K], [1]
Settings	10000 kPa	25000 kPa	40000 kPa	50000 kPa	100000 kPa	125000 kPa	150000 kPa
Crystal 1, DTA	326.74 ± 0.31	330.4 ± 0.33	333.86 ± 0.35	336.12 ± 0.36	346.93 ± 0.4	352.26 ± 0.41	357.28 ± 0.42
Crystal 2, DTA	324.24 ± 0.3	328.4 ± 0.33	332.37 ± 0.35	334.94 ± 0.36	–	–	–

CCCCCCCCCCCCCCCCCCCCCCCCCCCCCC [triacontane]
Settings	Triple point temperature [K]
[2]	361.27 ± 0.41

Solid-liquid equilibrium temperature [K], [1]
Settings	10000 kPa	25000 kPa	50000 kPa	75000 kPa	100000 kPa	125000 kPa	150000 kPa
Crystal 1, DTA	341.68 ± 0.31	345.34 ± 0.34	351.45 ± 0.37	357 ± 0.39	362.54 ± 0.41	367.76 ± 0.42	372.97 ± 0.44
Crystal 2, DTA	338.9 ± 0.31	343.03 ± 0.34	349.8 ± 0.37	356.07 ± 0.39	–	–	–
